Results reported in patent publication US20250186452A1, “NOVEL USE OF QUINOLINE COMPOUND” (TARAPEUTICS SCIENCE INC., priority 2022, published 2025).

Tested on: RAW264.7 cells
Assay: Cell transformation experiment: CD86 RNA level in M2-induced RAW264.7 cells (qPCR)
Assay type: cell-based, mouse
Protocol: RAW264.7 cells (purchased from ATCC, USA) were sucked up and down with a pipette, and the cells were added to a centrifuge tube, placed in a centrifuge, and centrifuged at 800 rpm for 4 minutes.
In this experiment, an RNA extraction kit (purchased from Tiangen Biochemical Technology, China, catalog number: DP451) was used. RNA extraction was performed according to the instructions, and the concentration of RNA in the sample was detected using a NanoDrop nucleic acid concentration meter, and the RNA solution was diluted to the same concentration.
In this experiment, TakaRa One Step TB Green® PrimeScript™ PLUS RT-PCR Kit (purchased from TaKaRa Bio, catalog number: RR096A) was used, which contained the following components:
The procedure was as follows: • (1) The PCR primers were taken out and placed on ice. The primer sequences used were as follows: […]
• (3) After the RT-PCR reaction reagents were prepared, they were mixed, and the mixture was dispensed into 8-Strip Tubes. 2 μL of RNA sample was added to the tube, the bottom of the tube was gently tapped to mix the solution, and the tube was centrifuged in a centrifuge for a while. • (4) The fluorescence quantitative PCR instrument was turned on. […] Roche analysis software LightCycler® 96 SW 1.1 was used to analyze the data, and the analyzed data was imported into Graphpad Prism7.0 for drawing.

COc1cc2nccc(Oc3ccc(NC(=O)Cc4ccc(Cl)c(C(F)(F)F)c4)cc3)c2cc1OC [Example 2, N-(4-((6,7-dimethoxyquinolin-4-yl)oxy)phenyl)-2-(4-chloro-3-(trifluoromethyl)phenyl)-acetamide]
effect on CD86 RNA level compared with positive controls (1 μM, same dose as PLX3397 and BLZ945, FIG. 2): better for Compound 2 at 1 μM than positive controls PLX3397 and BLZ945
RNA level of CD86 (RAW264.7 induced to M2, treated 72 hours, serial dilutions, FIG. 2): increased in a dose-dependent manner
